PMC5612656, “In vitro and in vivo effects of 2,4 diaminoquinazoline inhibitors of the decapping scavenger enzyme DcpS: Context-specific modulation of SMN transcript levels” (PLoS ONE, 2017)
Values joined by “and” are separate entries in the source; they are usually repeats but may differ in a detail not shown here. Equal values may be shown once.

Key:
[1] = Plasma drug levels after P4-P16 dosing; details: FVB/N background, mouse, ip
From the text: Personnel conducting studies followed the approved standard operating procedures for daily monitoring, dosing, weaning and euthanasia according to the approved study protocol. […] Line maintenance was maintained by interbreeding of the congenic line and every 4th generation mice were outbred to wild type FBV/N mice (jax # 001800) to reduce the possibility of new mutations within the line. Smn 2B mice were internally developed and maintained in the DiDonato laboratory. To generate the SMA mice used in this study an intercross between Smn 2B/2B and Smn +/- mice was performed. This generated litters in which 50% of the offspring were control (2B/+) and 50% SMA (2B/-). The day of birth was considered to be P0. If pups were born after 3pm, the following day was considered P0. At P1, pups were counted. If greater than 10 pups to a cage, pups were randomly chosen and moved to another cage to increase litter size, culled to reduce litter size or genotyped at P1 and culled at P2 to reduce litter size to 10 or fewer pups. Thereafter, no culling of pups was performed for drug studies. Individual mice were genotyped from DNA obtained from tail snips by polymerase chain reaction (PCR). All mice were weaned at P21 and separated into male and female cages. […] For the PK single dose studies a single ip injection was used. […] Body weights were recorded daily in the AM and dosing volume was adjusted accordingly. […]

[2] = cited from earlier work
[3] = test system: N2a cells; experiment: RNA-Seq (polyA RNA) of N2a neuroblastoma cells; format: cell-based, mouse
Procedure: Cells were then pelleted and lysed in RLT and the RNA was purified according to the protocol for the Qiagen miRNeasy kit to separate and enrich small RNA and large (>200 nt) fractions separately. […] RNA quality was also validated using qPCR for DcpS responsive genes. RNA fractions were used for cDNA library preparation which was performed using Truseq mRNA v2 reagents or TailorMix miRNA reagents (RS-122-2101 Illumina, San Diego CA, USA and TM302 Seqmatic, Fremont CA, USA). Libraries were run on a Nextseq 500 (Illumina) using a paired-end run (2x75bp) generating ~60 million reads per library for the mRNA-seq and 1x75bp generating ~5 million reads per library for the miRNA-seq. Demultiplexing, alignment, and differential analysis for the mRNA-seq were performed as described below. For the miRNA alignment, briefly the sequences between 16 and 35 nucleotides with average phred score ≥ 30 were retained for analysis. The reads were first mapped to mouse miRNAs using Bowtie without allowing for mismatches. Instead of discarding the remaining reads, we explored the possibilities of RNA editing to include potential isomiRs. These reads were mapped to miRNAs that have at most 1 base mismatch, a substitution at the 5’ or 3’ ends, or have 1 or 2 extra bases at either ends. Although 1 base mismatch would include 1 base substitution/deletion/addition at the ends, we made sure that 1 base mismatch was inside the miRNA and that all categories were mutually exclusive. Reads mapping to protein coding exons and other small RNAs were removed prior to mapping to miRNAs. Reads that uniquely mapped to miRNAs were considered and were profiled as: 1) identical to miRNAs, 2) perfect match to miRNAs but are of shorter length (no more than 5 bases short), 3) mapping to miRNAs with 1 substitution, 1 or 2 extra bases at 3’ and 5’ ends and with those with at most 1 mismatch (occurring inside the sequence and not on ends), 4) mapping to the precursor miRNA. Thus, steps 2–4 constitute “IsomiRs”-alternative forms of the mature miRNAs. We merged the counts of reads identical to a miR and those mapping to isomeric forms as they are found to have identical/very similar functions. The unaligned reads were mapped to the mouse genome and an internally developed database of rRNAs from bacteria, fungi, plant and eukaryotes to detect presence of contaminants. For differential analysis of miRNAs, only those with counts of ≥5 in at least 1/3rd samples (treatment vs control) were considered for analysis. The counts were normalized and analyzed using EdgeR [19] packages in R-Bioconductor. The P-values were corrected by FDR for multiple testing and miRNAs with FDR ≤15% and |FC|>1.5 were considered to be differentially expressed.
The differentially regulated gene lists for both the spinal cord mRNA-seq and the N2a mRNA-seq results with a corrected P-value less than 0.05 were loaded into IPA and analyzed against the Ingenuity Knowledgebase, Ingenuity Expert Information, and with experimentally observed confidence.

[4] = test system: SMN protein; experiment: SMN protein by Western blot in SMA cells (fibroblasts, lymphoblasts, iPS-derived neural progenitor cells); format: cell-based, human; details: 24 hours to 7 days
Procedure: Lysates were incubated at 95°C for 5 minutes and cleared at 14,000 RPM for 15 minutes. Cleared lysates were quantified by BCA assay. A total of 5 μg of each lysate was mixed with NuPage LDS sample buffer with […] and loaded and separated on a NuPage 10% Bis-Tris gel. Proteins were transferred to 0.2 micron nitrocellulose using the BioRad Turbo Transfer system.

[5] = test system: Smn protein; experiment: Smn protein in mouse tissues by Western blot; format: in vivo; details: 2B/- SMA mice
From the text: At P1, pups were counted.

[6] = test system: SMN transcripts in HEK-293T cells; experiment: SMN transcripts by ddPCR in HEK-293T cells; details: HEK293T cells
[7] = test system: N2a cells miRNA; experiment: miRNA RNA-Seq of N2a cells; format: cell-based, mouse; details: approximately 700 detectable
Procedure: Cells were then pelleted and lysed in RLT and the RNA was purified according to the protocol for the Qiagen miRNeasy kit to separate and enrich small RNA and large (>200 nt) fractions separately. […] RNA quality was also validated using qPCR for DcpS responsive genes. RNA fractions were used for cDNA library preparation which was performed using Truseq mRNA v2 reagents or TailorMix miRNA reagents (RS-122-2101 Illumina, San Diego CA, USA and TM302 […], Fremont CA, USA). Libraries were run on a Nextseq 500 (Illumina) using a paired-end run (2x75bp) generating ~60 million reads per library for the mRNA-seq and 1x75bp generating ~5 million reads per library for the miRNA-seq. […] The reads were first mapped to mouse miRNAs using Bowtie without allowing for mismatches. Instead of discarding the remaining reads, we explored the possibilities of RNA editing to include potential isomiRs. These reads were mapped to miRNAs that have at most 1 base mismatch, a substitution at the 5' or 3' ends, or have 1 or 2 extra bases at either ends. […] Reads mapping to protein coding exons and other small RNAs were removed prior to mapping to miRNAs. […] We merged the counts of reads identical to a miR and those mapping to isomeric forms as they are found to have identical/very similar functions. […] The counts were normalized and analyzed using EdgeR [19] packages in R-Bioconductor.

[8] = 1 μM, 24 hours, 18,409 detectable

Nc1nc(N)c2c(OCC3CCN(Cc4c(Cl)cccc4Cl)CC3)cccc2n1 [RG3039]
concentration at 12 h [1]: 4.24 ± 1.13 nM | physicochemical character (lipophilicity, basicity) [2]: highly lipophilic and dibasic | tissue accumulation compared to plasma [2]: significantly accumulates in all tissues compared to plasma | differential expression of Smn and DcpS ([3]; 1 μM, 24 hours): neither Smn nor DcpS itself were differentially expressed | down-regulated genes as share of differentially expressed genes ([3]; 1 μM, 24 hours): 41.7% | genes changed by less than one Log2 units (2-fold) in either direction ([3]; 1 μM, 24 hours): 1,489 genes | genes changed by less than one Log2 units (2-fold), share ([3]; 1 μM, 24 hours): 70.9% | genes changed by more than 2 log2 units (4-fold) in either direction ([3]; 1 μM, 24 hours): 80 genes | genes changed by more than 2 log2 units (4-fold), share ([3]; 1 μM, 24 hours): 3.8% | genes down-regulated by compound (P < 0.05) ([3]; 1 μM, 24 hours): 878 genes | pathways significantly affected (P < 0.05), Ingenuity Pathway Analysis ([3]; 1 μM, 24 hours): 53 pathways | proportion of detectable genes affected ([3]; 1 μM, 24 hours): > 11% and 11.4% | upregulated genes as share of differentially expressed genes ([3]; 1 μM, 24 hours): 58.3% | down-regulated genes as percentage of total detectable genes [3, 8]: 4.77% | upregulated genes as percentage of total detectable genes [3, 8]: 6.66% | genes differentially expressed compared to DMSO (P < 0.05) ([3]; 1 μM, 24 hours, 18,409 detectable genes): 2,104 genes | log2(fold-change), gene 1600020E01Rik ([3]; RG3039 vs DMSO, adjusted p-value 1.05E-117): 2.871 | log2(fold-change), gene Krcc1 ([3]; RG3039 vs DMSO, adjusted p-value 1.14E-85): -2.734 | log2(fold-change), gene Apba1 ([3]; RG3039 vs DMSO, adjusted p-value 1.54E-112): -5.025 | log2(fold-change), gene Rnf157 ([3]; RG3039 vs DMSO, adjusted p-value 3.09E-99): -3.057 | log2(fold-change), gene Stra6 ([3]; RG3039 vs DMSO, adjusted p-value 4.32E-66): -2.291 | Paqr8 log2 fold change ([3]; decreased, P = 0.00251): 0.657 | Dpm3 log2 fold change ([3]; increased, P = 0.000012): 0.884 | Pigw log2 fold change ([3]; increased, P = 1.89 x 10^−30): 1.54 | SMN protein [4]: in no experimental condition tested were we able to detect an increase in SMN protein | Smn protein levels in muscle [5]: no statistically significant change | Smn protein levels in spinal cord [5]: no statistically significant change | SMN2 transcript increase at later time points ([6]; 8 or 24hr): much reduced or absent | increase in SMN2 transcript ([6]; after 4h of treatment): ~ 20% | miR species differentially regulated by RG3039 but not PF-06802336 [7]: no miR species
